Data from PubChem BioAssay (NCI).
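Interpolation was linear, between the two tested concentrations surrounding the appropriate level; five concentrations were tested over 48 hours in 96-well plates. GI50 is the concentration that inhibits growth by half. TGI: concentration producing complete growth inhibition.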

Legend:
Test in all cases: NCI-60 cell line screen, 48 h
[1] = system: OVCAR-5 ovarian
[2] = system: NCI-H522 lung
[3] = system: NCI-H226 lung
[4] = system: SF-539 CNS
[5] = system: MOLT-4 leukemia
[6] = system: KM12 colon
[7] = system: NCI-H23 lung
[8] = system: M14 melanoma
[9] = system: DU-145 prostate
[10] = system: HCC-2998 colon
[11] = system: CAKI-1 renal
[12] = system: SN12C renal
[13] = system: MALME-3M melanoma
[14] = system: T-47D breast
[15] = system: SK-OV-3 ovarian
[16] = system: MDA-MB-435
[17] = system: UACC-62 melanoma
[18] = system: A498 renal
[19] = system: SW-620 colon
[20] = system: HS 578T breast
[21] = system: PC-3 prostate
[22] = system: SF-295 CNS
[23] = system: TK-10 renal
[24] = system: CCRF-CEM leukemia
[25] = system: MCF7 breast
[26] = system: HCT-116 colon
[27] = system: SNB-75 CNS
[28] = system: HCT-15 colon
[29] = system: OVCAR-8 ovarian
[30] = system: COLO 205 colon
[31] = system: SK-MEL-2 melanoma
[32] = system: OVCAR-4 ovarian
[33] = system: LOX IMVI melanoma
[34] = system: MDA-MB-468 breast
[35] = system: SK-MEL-5 melanoma
[36] = system: HT29 colon
[37] = system: SR leukemia
[38] = system: BT-549 breast
[39] = system: IGROV1 ovarian
[40] = system: NCI-H460 lung
[41] = system: HOP-62 NSCLC
[42] = system: MDA-MB-231 breast
[43] = system: SK-MEL-28 melanoma
[44] = system: HL-60(TB) leukemia
[45] = system: A549 NSCLC
[46] = system: 786-0 renal
[47] = system: EKVX NSCLC
[48] = system: OVCAR-3 ovarian
[49] = system: ACHN renal
[50] = system: RXF 393 renal
[51] = system: SF-268 CNS
[52] = system: HOP-92 NSCLC
[53] = system: SNB-19 CNS
[54] = system: UACC-257 melanoma
[55] = system: RPMI-8226 leukemia
[56] = system: UO-31 renal
[57] = system: K-562 leukemia
[58] = system: U251 CNS

Which results are given for `COc1ccc([C@H]2C(C(=O)c3ccc(Cl)cc3)C3(N[C@@H]2c2ccccc2)C(=O)Nc2ccc(Br)cc23)cc1` (stereo partly specified)?
GI50 [1]: 9.8 µM; TGI [1]: 19.1 µM; GI50 [2]: 8.97 µM; TGI [2]: 20.8 µM; GI50 [3]: 8.47 µM; TGI [3]: 16.4 µM; GI50 [4]: 9.47 µM; TGI [4]: 19.4 µM; GI50 [5]: 14.8 µM; TGI [5]: 47.2 µM; GI50 [6]: 11.5 µM; TGI [6]: 25.5 µM; GI50 [7]: 10.2 µM; TGI [7]: 20.8 µM; GI50 [8]: 9.18 µM; TGI [8]: 19.1 µM; GI50 [9]: 13.5 µM; TGI [9]: 36.7 µM; GI50 [10]: 8.82 µM; TGI [10]: 17.9 µM; GI50 [11]: 13.1 µM; TGI [11]: 42.4 µM; GI50 [12]: 8.53 µM; TGI [12]: 16 µM; GI50 [13]: 7.69 µM; TGI [13]: 15.1 µM; GI50 [14]: 11.5 µM; TGI [14]: 33.4 µM; GI50 [15]: 12.3 µM; TGI [15]: 36.8 µM; GI50 [16]: 10.2 µM; TGI [16]: 20.4 µM; GI50 [17]: 8.75 µM; TGI [17]: 16.7 µM; GI50 [18]: 10.5 µM; TGI [18]: 24.8 µM; GI50 [19]: 13.9 µM; TGI [19]: 44.8 µM; GI50 [20]: 9.96 µM; TGI [20]: 26.6 µM; GI50 [21]: 12.2 µM; TGI [21]: 31.5 µM; GI50 [22]: 9.65 µM; TGI [22]: 20.2 µM; GI50 [23]: 10.8 µM; TGI [23]: 28.7 µM; GI50 [24]: 14.4 µM; TGI [24]: 40.5 µM; GI50 [25]: 11.5 µM; TGI [25]: 34.9 µM; GI50 [26]: 9.7 µM; TGI [26]: 18.5 µM; GI50 [27]: 8.73 µM; TGI [27]: 35.4 µM; GI50 [28]: 9.91 µM; TGI [28]: 20.3 µM; GI50 [29]: 9.68 µM; TGI [29]: 20.4 µM; GI50 [30]: 8.35 µM; TGI [30]: 16 µM; GI50 [31]: 8.37 µM; TGI [31]: 16 µM; GI50 [32]: 13 µM; TGI [32]: 42.4 µM; GI50 [33]: 7.86 µM; TGI [33]: 15.9 µM; GI50 [34]: 10.2 µM; TGI [34]: 27 µM; GI50 [35]: 8.65 µM; TGI [35]: 16.5 µM; GI50 [36]: 9.03 µM; TGI [36]: 17.1 µM; GI50 [37]: 12.8 µM; TGI [37]: 35.8 µM; GI50 [38]: 8.66 µM; TGI [38]: 16.6 µM; GI50 [39]: 11 µM; TGI [39]: 25.9 µM; GI50 [40]: 10.1 µM; TGI [40]: 20.9 µM; GI50 [41]: 8.59 µM; TGI [41]: 16.5 µM; GI50 [42]: 8.88 µM; TGI [42]: 16.5 µM; GI50 [43]: 8.83 µM; TGI [43]: 16.8 µM; GI50 [44]: 11.3 µM; TGI [44]: 29.8 µM; GI50 [45]: 11.9 µM; TGI [45]: 34.2 µM; GI50 [46]: 12.4 µM; TGI [46]: 32.3 µM; GI50 [47]: 12.4 µM; TGI [47]: 42.6 µM; GI50 [48]: 10.5 µM; TGI [48]: 23.3 µM; GI50 [49]: 13.4 µM; TGI [49]: 41.6 µM; GI50 [50]: 7.29 µM; TGI [50]: 16.2 µM; GI50 [51]: 14.4 µM; TGI [51]: 49.7 µM; GI50 [52]: 8.27 µM; TGI [52]: 19.7 µM; GI50 [53]: 15.1 µM; TGI [53]: > 53.3 µM; GI50 [54]: 10.5 µM; TGI [54]: 27.9 µM; GI50 [55]: 14.3 µM; TGI [55]: 41 µM; GI50 [56]: 10.7 µM; TGI [56]: 29.3 µM; GI50 [57]: 15.8 µM; TGI [57]: > 53.3 µM; GI50 [58]: 9.18 µM; TGI [58]: 18 µM
